Assay: Viscometric properties (oscillatory rheology, shear sweep)
Format: physicochemical
Procedure: The molecular weight of trisilanol i-octyl POSS® at 1184 g/mol, is generally equivalent to that of common silicone oligomers. In comparison to telechelic silanol polydimethylsiloxanes, trisilanol i-octylPOSS is unique in terms of its high viscosity (27 Pa·s at 24° C.) relative to the 4.3 wt % of silanol it contains. Telechelic silanol polydimethylsiloxanes and diphenyl-siloxane-dimethyl-siloxane copolymers with equivalent silanol contents are generally low viscosity fluids
Oscillatory rheology was utilized to determine the viscometric characteristics of i-octylPOSS trisilanol versus mixtures containing solid hemostatic agents suspended in the carrier fluid, i-octylPOSS trisilanol. The solid hemostatic agents utilized for these tests were chitin and kaolin. Shear sweep measurements of viscosity at 37° C. over the range of 0.01-100 s^−1 were deemed adequate to assess reproducibility of the hemostat agent mixtures.
It is non-Newtonian attributes are evidenced by a reduction of viscosity relative to shear rate. The shear thinning behavior is useful as it enables the hemostat to be syringable or pourable yet to remain in place once deposited onto a wound. Desirably, the viscosity of this hemostat can be controlled simply by increasing or decreasing the amount of kaolin incorporation.
A similar viscosity test was performed using chitin as the solid hemostatic additive.

## trisilanol hepta-isoOctyl POSS [i-octylPOSS trisilanol]
At 24° C.
  viscosity: 27 Pa·s
Shear sweep 0.01-100 s^−1 at 37° C.
  rheological behaviour (viscosity relative to shear rate): Newtonian fluid

— patent US12642886B2, “POSS viscoelastic hemostatic agents” (Hybrid Plastics, Incorporated, priority 2019, dated 2026)
